Results from patent publication US20260060252A1, “HERBICIDAL COMBINATIONS” (UPL LTD, priority 2018, published 2026).

Columns and labels:
Format in all cases: in vivo
Settings in all cases: clomazone 32, metribuzin 12, sulfentrazone 7.7 Fl oz/A, combination 32 + 7.7 + 12 Fl oz/A
Palmer amaranth = experiment: % control of Palmer amaranth in Soybean
Greenfox tail = experiment: % control of Greenfox tail in Soybean
Tall morning glory = experiment: % control of Tall morning glory in Soybean

Row | Compound | % control of Palmer amaranth in Soybean, Actual (Palmer amaranth; 14 DAA) [%] | % control of Palmer amaranth in Soybean, Actual (Palmer amaranth; 28 DAA) [%] | % control of Palmer amaranth in Soybean, Actual (Palmer amaranth; 45 DAA) [%] | % control of Greenfox tail in Soybean, Actual (Greenfox tail; 14 DAA) [%] | % control of Greenfox tail in Soybean, Actual (Greenfox tail; 28 DAA) [%] | % control of Greenfox tail in Soybean, Actual (Greenfox tail; 45 DAA) [%] | % control of Tall morning glory in Soybean, Actual (Tall morning glory; 14 DAA) [%] | % control of Tall morning glory in Soybean, Actual (Tall morning glory; 28 DAA) [%] | % control of Tall morning glory in Soybean, Actual (Tall morning glory; 45 DAA) [%]
1 | CC1(C)CON(Cc2ccccc2Cl)C1=O [Clomazone] | 60 | 43.3 | 16.4 | 85 | 56.7 | 32.9 | 53.3 | 30 | 13
2 | CSc1nnc(C(C)(C)C)c(=O)n1N [Metribuzin, 4-amino-6-(1,1-dimethylethyl)-3-(methylthio)-1,2,4-triazin-5 (4H)-one] | 65 | 50 | 36.1 | 63.4 | 39.9 | 22.7 | 53.3 | 39.6 | 16.4
3 | Cc1nn(-c2cc(NS(C)(=O)=O)c(Cl)cc2Cl)c(=O)n1C(F)F [Sulfentrazone, N-[2,4-dichloro-5-[4-(difluoromethyl)-4,5-dihydro-3-methyl-5-oxo-1H-1,2,4-triazol-1-yl]phenyl]-methane sulfonamide] | 80 | 62 | 39.4 | 68.5 | 46.6 | 29.7 | 66.7 | 42.8 | 22.5
